From patent US20060069132A1, “Azolecarboxamide herbicides” (priority 2004, published 2006)
Where two headings read alike, the source gives them in different places.

What was measured:
barnyardgrass [1] = test: Test B pre-/postemergence herbicide test; assay type: in vivo, Echinochloa crus-galli
Method in brief: (§1)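 Response was scored visually 13 to 15 days after treatment against untreated greenhouse controls, 0 meaning no effect and 100 complete control. Formulations (solvent mixture plus surfactant) went onto soil after planting, onto foliage of 1- to 4-leaf plants, and onto 2-leaf plants in a flooded paddy set including rice and barnyardgrass.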

Surinam grass = test: Test B pre-/postemergence herbicide test; assay type: in vivo, Urochloa decumbens
Method in brief: (§2)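 Herbicidal effect was judged by eye on a 0–100 scale after plants stood 13 to 15 days in the greenhouse following pre- or postemergence treatment with surfactant-containing formulations.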

cocklebur = test: Test B pre-/postemergence herbicide test; assay type: in vivo, Xanthium strumarium
Method in brief: as §1

corn = test: Test B pre-/postemergence herbicide test; assay type: in vivo, Zea mays
Method in brief: as §2

large crabgrass = test: Test B pre-/postemergence herbicide test; assay type: in vivo, Digitaria sanguinalis
Method in brief: as §2

giant foxtail = test: Test B pre-/postemergence herbicide test; assay type: in vivo, Setaria faberi
Method in brief: as §2

lambsquarters = test: Test B pre-/postemergence herbicide test; assay type: in vivo, Chenopodium album
Method in brief: as §2

morningglory = test: Test B pre-/postemergence herbicide test; assay type: in vivo, Ipomoea coccinea
Method in brief: as §1

pigweed = test: Test B pre-/postemergence herbicide test; assay type: in vivo, Amaranthus retroflexus
Method in brief: as §2

blackgrass = test: Test B postemergence herbicide test; assay type: in vivo, Alopecurus myosuroides
Method in brief: (§3)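 Visual control ratings, 0–100 versus untreated controls, taken after 13 to 15 days in the greenhouse. Blackgrass received a postemergence spray at the 1- to 4-leaf stage (2–18 cm); ducksalad, umbrella sedge and barnyardgrass were flooded-paddy treated at 2 leaves.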

wheat = test: Test B postemergence herbicide test; assay type: in vivo, Triticum aestivum; parameters: key to Wheat plant response rating: 0 = no effect, 100 = complete control
Method in brief: (§4)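 Treated at 2-leaf (paddy) or 1–4-leaf, 2–18 cm (postemergence); greenhouse 13–15 d; visual score vs control, 0 none to 100 complete control; dash = not tested.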

wild oat = test: Test B postemergence herbicide test; assay type: in vivo, Avena fatua
Method in brief: as §4

rice = test: Test B flooded paddy test; assay type: in vivo, Oryza sativa; details: 1000 g ai/ha, scale 0 to 100 (0 no effect, 100 complete control)
Method in brief: as §4

[2] = tested on: small flower umbrella sedge; test: Test B flooded paddy test; assay type: in vivo, Cyperus difformis; details: 1000 g ai/ha, scale 0 to 100 (0 no effect, 100 complete control)
Method in brief: as §3

ducksalad = test: Test B flooded paddy test; assay type: in vivo, Heteranthera limosa; details: 1000 g ai/ha, scale 0 to 100 (0 no effect, 100 complete control)
Method in brief: as §3

barnyardgrass [3] = test: Test B flooded paddy test; assay type: in vivo, Echinochloa crus-galli; details: 1000 g ai/ha, scale 0 to 100 (0 no effect, 100 complete control)
Method in brief: as §3

[4] = 125 g ai/ha, 0 is no effect, 100 is complete control, preemergence
[5] = 125 g ai/ha, visual rating, scale 0 (no effect) to 100 (complete control), postemergence
[6] = Postemergence, 500 g ai/ha, scale 0 (no effect) to 100 (complete control)

`CCc1cn(C(C)(C)C)nc1C(=O)Nc1cccc(C(=O)N(CC)CC)c1` [Compound 168, N-[3-[(diethylamino)carbonyl]phenyl]-1-(1,1-dimethylethyl)-4-ethyl-1H-pyrazole-3-carboxamide] showed a pest or weed control at 31 g/ha (barnyardgrass [1]; Echinochloa crus-galli, post-emergence, postemergence, 31 g ai/ha, scale 0 to 100, read-out: Barnyardgrass plant response rating) of 0%, a pest or weed control at 125 g/ha (barnyardgrass [1]; Echinochloa crus-galli, post-emergence, postemergence, 125 g ai/ha, visual rating, scale 0 (no effect) to 100 (complete control), read-out: Barnyardgrass plant response rating) of 50% and a pest or weed control at 125 g/ha (barnyardgrass [1]; Echinochloa crus-galli, pre-emergence, 125 g ai/ha, 0 = no effect, 100 = complete control, read-out: Barnyardgrass plant response rating (0 to 100 scale)) of 70%. For the same compound, the pest or weed control at 31 g/ha (Surinam grass; Urochloa decumbens, post-emergence, postemergence, 31 g ai/ha, scale 0 to 100, read-out: Surinam Grass plant response rating) was 10%, the pest or weed control at 125 g/ha (Surinam grass; Urochloa decumbens, post-emergence, postemergence, 125 g ai/ha, visual rating, scale 0 (no effect) to 100 (complete control), read-out: Surinam Grass plant response rating) was 20% and the pest or weed control at 125 g/ha (Surinam grass; Urochloa decumbens, pre-emergence, 125 g ai/ha, 0 = no effect, 100 = complete control, read-out: Surinam Grass plant response rating (0 to 100 scale)) was 50%. The pest or weed control at 31 g/ha (cocklebur; Xanthium strumarium, post-emergence, postemergence, 31 g ai/ha, scale 0 to 100, read-out: Cocklebur plant response rating) was 30%, the pest or weed control at 125 g/ha (cocklebur; Xanthium strumarium, post-emergence, postemergence, 125 g ai/ha, visual rating, scale 0 (no effect) to 100 (complete control), read-out: Cocklebur plant response rating) was 70% and the pest or weed control at 125 g/ha (cocklebur; Xanthium strumarium, pre-emergence, 125 g ai/ha, 0 = no effect, 100 = complete control, read-out: Cocklebur plant response rating (0 to 100 scale)) was 0%. It also gave a plant injury at 31 g/ha (corn; Zea mays, post-emergence, postemergence, 31 g ai/ha, scale 0 to 100, read-out: Corn plant response rating) of 10%, a plant injury at 125 g/ha (corn; Zea mays, post-emergence, postemergence, 125 g ai/ha, visual rating, scale 0 (no effect) to 100 (complete control), read-out: Corn plant response rating) of 50% and a plant injury at 125 g/ha (corn; Zea mays, pre-emergence, 125 g ai/ha, 0 = no effect, 100 = complete control, read-out: Corn plant response rating (0 to 100 scale)) of 0%. It also gave a pest or weed control at 31 g/ha (large crabgrass; Digitaria sanguinalis, post-emergence, postemergence, 31 g ai/ha, scale 0 to 100, read-out: Crabgrass, Large plant response rating) of 10%, a pest or weed control at 125 g/ha (large crabgrass; Digitaria sanguinalis, post-emergence, postemergence, 125 g ai/ha, visual rating, scale 0 (no effect) to 100 (complete control), read-out: Crabgrass, Large plant response rating) of 20% and a pest or weed control at 125 g/ha (large crabgrass; Digitaria sanguinalis, pre-emergence, 125 g ai/ha, 0 = no effect, 100 = complete control, read-out: Crabgrass, Large plant response rating (0 to 100 scale)) of 100%. For the same compound, the pest or weed control at 31 g/ha (giant foxtail; Setaria faberi, post-emergence, 336 h, postemergence, 31 g ai/ha, scale 0 to 100, read-out: Foxtail, Giant plant response rating) was 0%, the pest or weed control at 125 g/ha (giant foxtail; Setaria faberi, post-emergence, 336 h, postemergence, 125 g ai/ha, visual rating, scale 0 (no effect) to 100 (complete control), read-out: Foxtail, Giant plant response rating) was 20% and the pest or weed control at 125 g/ha (giant foxtail; Setaria faberi, pre-emergence, 336 h, 125 g ai/ha, 0 = no effect, 100 = complete control, read-out: Foxtail, Giant plant response rating (0 to 100 scale)) was 90%. For the same compound, the pest or weed control at 31 g/ha (lambsquarters; Chenopodium album, post-emergence, 336 h, postemergence, 31 g ai/ha, scale 0 to 100, read-out: Lambsquarters plant response rating) was 50%, the pest or weed control at 125 g/ha (lambsquarters; Chenopodium album, post-emergence, 336 h, postemergence, 125 g ai/ha, visual rating, scale 0 (no effect) to 100 (complete control), read-out: Lambsquarters plant response rating) was 70% and the pest or weed control at 125 g/ha (lambsquarters; Chenopodium album, pre-emergence, 336 h, 125 g ai/ha, 0 = no effect, 100 = complete control, read-out: Lambsquarters plant response rating (0 to 100 scale)) was 90%. It also gave a pest or weed control at 31 g/ha (morningglory; Ipomoea, post-emergence, 336 h, postemergence, 31 g ai/ha, scale 0 to 100, read-out: Morningglory plant response rating) of 20%, a pest or weed control at 125 g/ha (morningglory; Ipomoea, post-emergence, 336 h, postemergence, 125 g ai/ha, visual rating, scale 0 (no effect) to 100 (complete control), read-out: Morningglory plant response rating) of 70% and a pest or weed control at 125 g/ha (morningglory; Ipomoea, pre-emergence, 336 h, 125 g ai/ha, 0 = no effect, 100 = complete control, read-out: Morningglory plant response rating (0 to 100 scale)) of 0%. It also gave a pest or weed control at 31 g/ha (pigweed; Amaranthus retroflexus, post-emergence, 336 h, postemergence, 31 g ai/ha, scale 0 to 100, read-out: Pigweed plant response rating) of 50%, a pest or weed control at 125 g/ha (pigweed; Amaranthus retroflexus, post-emergence, 336 h, postemergence, 125 g ai/ha, visual rating, scale 0 (no effect) to 100 (complete control), read-out: Pigweed plant response rating) of 70% and a pest or weed control at 125 g/ha (pigweed; Amaranthus retroflexus, pre-emergence, 336 h, 125 g ai/ha, 0 = no effect, 100 = complete control, read-out: Pigweed plant response rating (0 to 100 scale)) of 100%. The pest or weed control at 31 g/ha (blackgrass; Alopecurus myosuroides, post-emergence, 336 h, postemergence, 31 g ai/ha, scale 0 to 100, read-out: Blackgrass plant response rating) was 0%, the pest or weed control at 125 g/ha (blackgrass; Alopecurus myosuroides, post-emergence, 336 h, postemergence, 125 g ai/ha, visual rating, scale 0 (no effect) to 100 (complete control), read-out: Blackgrass plant response rating) was 10% and the plant injury at 31 g/ha (wheat; Triticum aestivum, post-emergence, 336 h, postemergence, 31 g ai/ha, scale 0 to 100, read-out: Wheat plant response rating) was 0%. It also gave a plant injury at 125 g/ha (wheat; Triticum aestivum, post-emergence, 336 h, postemergence, 125 g ai/ha, visual rating, scale 0 (no effect) to 100 (complete control), read-out: Wheat plant response rating) of 20%, a pest or weed control at 31 g/ha (wild oat; Avena fatua, post-emergence, 336 h, postemergence, 31 g ai/ha, scale 0 to 100, read-out: Oat, Wild plant response rating) of 10% and a pest or weed control at 125 g/ha (wild oat; Avena fatua, post-emergence, 336 h, postemergence, 125 g ai/ha, visual rating, scale 0 (no effect) to 100 (complete control), read-out: Oat, Wild plant response rating) of 20%. The plant injury at 1000 g/ha (rice; Oryza sativa, 336 h, visual rating, 13 to 15 days, read-out: Rice plant response rating) was 40%, the pest or weed control at 1000 g/ha ([2]; Cyperus difformis, 336 h, visual rating, 13 to 15 days, read-out: Sedge, Umbrella plant response rating) was 90% and the pest or weed control at 1000 g/ha (ducksalad; Heteranthera limosa, 336 h, visual rating, 13 to 15 days, read-out: Ducksalad plant response rating) was 70%. For the same compound, the pest or weed control at 1000 g/ha (barnyardgrass [3]; Echinochloa crus-galli, 336 h, visual rating, 13 to 15 days, read-out: Barnyardgrass plant response rating) was 50%.
In the case of `CCc1nn(C(C)(C)C)nc1C(=S)Nc1cccc(C(=S)N(C)C)c1` [Compound 396], the “Plant response rating (0 to 100 scale), Barnyardgrass” value (barnyardgrass [1]; [4]) is reported as 90, the “Barnyardgrass plant response rating” value (barnyardgrass [1]; [5]) is reported as 10 and the “Barnyardgrass plant response rating” value (barnyardgrass [1]; [6]) is reported as 20. The “Plant response rating (0 to 100 scale), Surinam Grass” value (Surinam grass; [4]) was 90, the “Surinam Grass plant response rating” value (Surinam grass; [5]) was 20 and the “Surinam Grass plant response rating” value (Surinam grass; [6]) was 30. For the same compound, the “Plant response rating (0 to 100 scale), Cocklebur” value (cocklebur; [4]) was 40, the “Cocklebur plant response rating” value (cocklebur; [5]) was 20 and the “Cocklebur plant response rating” value (cocklebur; [6]) was 60. For the same compound, the “Plant response rating (0 to 100 scale), Corn” value (corn; [4]) was 80, the “Corn plant response rating” value (corn; [5]) was 10 and the “Corn plant response rating” value (corn; [6]) was 10. For the same compound, the “Plant response rating (0 to 100 scale), Crabgrass, Large” value (large crabgrass; [4]) was 100, the “Crabgrass, Large plant response rating” value (large crabgrass; [5]) was 20 and the “Crabgrass, Large plant response rating” value (large crabgrass; [6]) was 20. For the same compound, the “Plant response rating (0 to 100 scale), Foxtail, Giant” value (giant foxtail; [4]) was 100, the “Foxtail, Giant plant response rating” value (giant foxtail; [5]) was 20 and the “Foxtail, Giant plant response rating” value (giant foxtail; [6]) was 30. The “Plant response rating (0 to 100 scale), Lambsquarters” value (lambsquarters; [4]) was 100, the “Lambsquarters plant response rating” value (lambsquarters; [5]) was 80 and the “Lambsquarters plant response rating” value (lambsquarters; [6]) was 100. For the same compound, the “Plant response rating (0 to 100 scale), Morningglory” value (morningglory; [4]) was 60, the “Morningglory plant response rating” value (morningglory; [5]) was 20 and the “Morningglory plant response rating” value (morningglory; [6]) was 60. For the same compound, the “Plant response rating (0 to 100 scale), Pigweed” value (pigweed; [4]) was 90, the “Pigweed plant response rating” value (pigweed; [5]) was 40 and the “Pigweed plant response rating” value (pigweed; [6]) was 70. The “Blackgrass plant response rating” value (blackgrass; [5]) was 10, the “Blackgrass plant response rating” value (blackgrass; [6]) was 30 and the “Wheat plant response rating” value (wheat; [5]) was 10. For the same compound, the “Wheat plant response rating” value (wheat; 500 g ai/ha, scale 0 to 100, 0 no effect, 100 complete control, preemergence) was 100, the “Wheat plant response rating” value (wheat; [6]) was 20 and the “Oat, Wild plant response rating” value (wild oat; [5]) was 0. For the same compound, the “Oat, Wild plant response rating” value (wild oat; [6]) was 30, the “Rice plant response rating” value (rice) was 70 and the “Sedge, Umbrella plant response rating” value [2] was 80. For the same compound, the “Ducksalad plant response rating” value (ducksalad) was 70 and the “Barnyardgrass plant response rating” value (barnyardgrass [3]) was 90.
